Source: ChEMBL document CHEMBL2440117, “Improved inhibitory activities against tumor-cell migration and invasion by 15-benzylidene substitution derivatives of andrographolide” (Bioorg Med Chem Lett, 2013)
Calls of active or inactive are those of the source. The calls are words filed in the database; no cut-off is given here.

How the values were obtained:
HT-29 [1] = assay: Cytotoxicity against human HT-29 cells assessed as growth inhibition at 10 uM after 48 hrs by MTT assay; format: functional, cell-based
SGC-7901 [2] = assay: Antimigratory activity against human SGC7901 cells at 10 uM after 12 to 48 hrs by wound-healing assay relative to control; format: functional
A549 [3] = assay: Antimigratory activity against human A549 cells at 5 uM after 12 to 48 hrs by wound-healing assay relative to control; format: functional
ECa-109 [4] = assay: Cytotoxicity against human EC109 cells assessed as growth inhibition at 10 uM after 48 hrs by MTT assay; format: functional, cell-based
PC-3 [5] = assay: Cytotoxicity against human PC3 cells assessed as growth inhibition at 10 uM after 48 hrs by MTT assay relative to control; format: functional; details: for inhibition of growth at 10 µM: PC-3, 48 h, read-out: GI
PC-3 [6] = assay: Antimigratory activity against human PC3 cells after 12 to 48 hrs by wound-healing assay; format: functional, cell-based
SGC-7901 [7] = assay: Cytotoxicity against human SGC7901 cells assessed as growth inhibition at 10 uM after 48 hrs by MTT assay relative to control; format: functional, cell-based
A549 [8] = assay: Cytotoxicity against human A549 cells assessed as growth inhibition at 10 uM after 48 hrs by MTT assay; format: functional, cell-based
5637 [9] = assay: Cytotoxicity against human 5637 cells assessed as growth inhibition at 10 uM after 48 hrs by MTT assay relative to control; format: functional, cell-based
[10] = Antimigratory activity against human EC109 cells at 5 uM after 12 to 48 hrs by wound-healing assay relative to control; format: functional; details: ECa-109
HT-29 [11] = assay: Antimigratory activity against human HT-29 cells after 12 to 48 hrs by wound-healing assay; format: functional, cell-based
5637 [12] = assay: Antimigratory activity against human 5637 cells at 10 uM after 12 to 48 hrs by wound-healing assay relative to control; format: functional
PC-3 [13] = assay: Antimigratory activity against human PC3 cells at 10 uM after 12 to 48 hrs by wound-healing assay relative to control; format: functional
SGC-7901 [14] = assay: Downregulation of MMP-9 mRNA expression in human SGC7901 cells at 1.25 to 2.5 uM after 48 hrs by semi-quantitative RT-PCR analysis; format: functional, cell-based
5637 [15] = assay: Antimigratory activity against human 5637 cells at 5 uM after 12 to 48 hrs by wound-healing assay relative to control; format: functional
A549 [16] = assay: Antimigratory activity against human A549 cells at 10 uM after 12 to 48 hrs by wound-healing assay relative to control; format: functional
HT-29 [17] = assay: Antimigratory activity against human HT-29 cells at 10 uM after 12 to 48 hrs by wound-healing assay relative to control; format: functional
[18] = (§1) Antimigratory activity against human EC109 cells at 10 uM after 12 to 48 hrs by wound-healing assay relative to control; format: functional; details: ECa-109
5637 [19] = assay: Cytotoxicity against human 5637 cells assessed as growth inhibition at 5 uM after 48 hrs by MTT assay relative to control; format: functional; details: Homo sapiens, 5637, 48 h; read-out: GI
SGC-7901 [20] = assay: Downregulation of MMP-9 protein expression in human SGC7901 cells at 2.5 to 10 uM after 72 hrs by microscopic analysis; format: functional, cell-based
SGC-7901 [21] = assay: Downregulation of MMP-2 protein expression in human SGC7901 cells at 10 uM after 72 hrs by microscopic analysis; format: functional, cell-based
SGC-7901 [22] = assay: Downregulation of MMP-2 mRNA expression in human SGC7901 cells at 1.25 uM after 48 hrs by semi-quantitative RT-PCR analysis; format: functional, cell-based
SGC-7901 [23] = assay: Downregulation of MMP-7 mRNA expression in human SGC7901 cells at 1.25 to 10 uM after 48 hrs by semi-quantitative RT-PCR analysis; format: functional, cell-based
SGC-7901 [24] = assay: Downregulation of MMP-7 protein expression in human SGC7901 cells at 2.5 to 10 uM after 72 hrs by microscopic analysis; format: functional, cell-based
SGC-7901 [25] = assay: Antimigratory activity against human SGC7901 cells after 12 to 48 hrs by wound-healing assay; format: functional, cell-based
SGC-7901 [26] = assay: Antiinvasive activity against human SGC7901 cells after 24 hrs by matrigel invasion assay; format: functional, cell-based; details: SGC-7901, 24 h
SGC-7901 [27] = assay: Antiinvasive activity against human SGC7901 cells at 5 to 10 uM after 24 hrs by matrigel invasion assay relative to control; format: functional, cell-based
SGC-7901 [28] = assay: Effect on MMP-2 mRNA expression in human SGC7901 cells at 10 uM after 48 hrs by semi-quantitative RT-PCR analysis; format: functional, cell-based
5637 [29] = assay: Antimigratory activity against human 5637 cells at 2.5 uM after 12 to 48 hrs by wound-healing assay; format: functional, cell-based
ECa-109 [30] = assay: as §1; format: functional
SGC-7901 [31] = assay: Downregulation of MMP-7 mRNA expression in human SGC7901 cells after 48 hrs by semi-quantitative RT-PCR analysis; format: functional, cell-based
SGC-7901 [32] = assay: Antiinvasive activity against human SGC7901 cells at 10 uM after 24 hrs by matrigel invasion assay relative to control; format: functional; details: SGC-7901, 24 h
SGC-7901 [33] = assay: Downregulation of MMP-9 mRNA expression in human SGC7901 cells at 10 uM after 48 hrs by semi-quantitative RT-PCR analysis; format: functional, cell-based
A549 [34] = assay: Antimigratory activity against human A549 cells after 12 to 48 hrs by wound-healing assay; format: functional, cell-based
5637 [35] = assay: Antimigratory activity against human 5637 cells after 12 to 48 hrs by wound-healing assay; format: functional, cell-based

Row | Compound | growth inhibition (GI) (HT-29 [1]) | growth inhibition (GI) (ECa-109 [4]) | growth inhibition (GI) (PC-3 [5]) | growth inhibition (GI) (SGC-7901 [7]) | growth inhibition (GI) (A549 [8]) | growth inhibition (GI) 5637 [9] | inhibition (PC-3 [13]) | inhibition (SGC-7901 [2]) | inhibition at 5 µM 5637 [15] [%] | inhibition of growth at 5 µM 5637 [19] [%] | other results
1 | C=C1CC[C@@H]2[C@](C)(CO)[C@H](O)CC[C@@]2(C)[C@@H]1/C=C/C1=CC(=C/c2ccccc2)/OC1=O | inactive | inactive | inactive | inactive | inactive | inactive | – | – | – | – | inhibition at 10 µM (SGC-7901 [2]): 30.3%; inhibition at 5 µM (A549 [3]): 45.1%; IC50 (PC-3 [6]): 13.2 µM; inhibition at 5 µM [10]: 45.3%; IC50 (HT-29 [11]): 48.4 µM; inhibition at 10 µM 5637 [12]: 44.8%
2 | C[C@]1(CO)[C@H]2CC[C@@]3(CO3)[C@@H](/C=C/C3=CCOC3=O)[C@]2(C)CC[C@H]1O | – | – | inactive | inactive | – | inactive | inactive | inactive | – | – | inhibition at 10 µM 5637 [12]: 22.5%
3 | C=C1CC[C@@H]2[C@](C)(COC(=O)c3cccnc3)[C@H](OC(=O)c3cccnc3)CC[C@@]2(C)[C@@H]1/C=C/C1=CCOC1=O | – | – | inactive | inactive | – | inactive | inactive | inactive | – | – | inhibition at 10 µM 5637 [12]: 31.7%
4 | C=C1CC[C@@H]2[C@](C)(CO)[C@H](O)CC[C@@]2(C)[C@@H]1/C=C/C1=CC(=C/c2ccc(Cl)cc2)/OC1=O | inactive | inactive | – | inactive | inactive | – | – | – | 16.4 | 25.3 | inhibition at 10 µM (PC-3 [13]): 58.5%; Activity (SGC-7901 [14]): Active; inhibition at 10 µM (A549 [16]): 41.4%; inhibition at 10 µM (HT-29 [17]): 48.1%; inhibition at 10 µM [18]: 40.7%; inhibition of growth at 10 µM (PC-3 [5]): 11.3%; Activity (SGC-7901 [20]): Active; Activity (SGC-7901 [21]): Active; Activity (SGC-7901 [22]): Active; Activity (SGC-7901 [23]): Active; Activity (SGC-7901 [24]): Active; IC50 (SGC-7901 [25]): 4.3 µM; IC50 (SGC-7901 [26]): 4.6 µM
5 | C=C1CC[C@@H]2[C@](C)(CO)[C@H](O)CC[C@@]2(C)[C@@H]1/C=C/C1=CCOC1=O | – | – | inactive | inactive | – | inactive | inactive | inactive | – | – | inhibition at 10 µM 5637 [12]: 44.7%
6 | C=C1CC[C@@H]2[C@](C)(COC(=O)CCC(=O)O)[C@H](OC(=O)CCC(=O)O)CC[C@@]2(C)[C@@H]1/C=C/C1=CC(=C/c2ccc(Cl)cc2)/OC1=O | – | – | inactive | inactive | – | inactive | inactive | inactive | – | – | inhibition 5637 [12]: inactive
7 | C=C1CC[C@@H]2[C@](C)(CO)[C@H](O)CC[C@@]2(C)[C@@H]1/C=C/C1=CC(=C/c2ccc(OC)cc2)/OC1=O | inactive | inactive | inactive | inactive | inactive | – | – | – | 17.9 | 33.7 | inhibition at 10 µM (PC-3 [13]): 34%; inhibition at 10 µM (SGC-7901 [2]): 48.5%; inhibition at 10 µM (A549 [16]): 35.1%; inhibition at 10 µM (HT-29 [17]): 38.7%; inhibition at 10 µM [18]: 41.3%
8 | C=C1CC[C@@H]2[C@](C)(COC(=O)CCC(=O)O)[C@H](OC(=O)CCC(=O)O)CC[C@@]2(C)[C@@H]1/C=C/C1=CCOC1=O | – | – | inactive | inactive | – | inactive | inactive | inactive | – | – | inhibition 5637 [12]: inactive
9 | C=C1CC[C@@H]2[C@](C)(CO)[C@H](O)CC[C@@]2(C)[C@@H]1C/C=C1/C(=O)OC[C@H]1O [ANDROGRAPHOLIDE] | inactive | inactive | inactive | inactive | inactive | – | inactive | – | 34.5 | 44 | inhibition (SGC-7901 [27]): Active; Activity (SGC-7901 [28]): inactive; inhibition 5637 [29]: inactive; inhibition at 10 µM (SGC-7901 [2]): 20.8%; inhibition at 5 µM (A549 [3]): 28.6%; inhibition (HT-29 [17]): inactive; inhibition (ECa-109 [30]): inactive; Activity (SGC-7901 [31]): Dose-dependent effect; inhibition at 10 µM (SGC-7901 [32]): 17.7%; Activity (SGC-7901 [33]): Active
10 | C=C1CC[C@@H]2[C@](C)(CO)[C@H](O)CC[C@@]2(C)[C@@H]1/C=C/C1=CC(=C/c2ccc(Br)cc2)/OC1=O | – | – | – | inactive | – | – | – | – | 27.9 | 33.6 | inhibition at 10 µM (PC-3 [13]): 83.8%; inhibition of growth at 10 µM (PC-3 [5]): 40.2%; IC50 (SGC-7901 [25]): 8.6 µM
11 | C=C1CC[C@@H]2[C@](C)(CO)[C@H](O)CC[C@@]2(C)[C@@H]1/C=C/C1=CC(=C/c2ccc(F)cc2)/OC1=O | inactive | inactive | inactive | inactive | inactive | – | – | – | 19.5 | 32.5 | inhibition at 10 µM (PC-3 [13]): 34.3%; inhibition at 10 µM (HT-29 [17]): 39.5%; inhibition at 10 µM [18]: 34.2%; IC50 (A549 [34]): 7.2 µM; IC50 (SGC-7901 [25]): 8 µM
12 | C=C1CC[C@@H]2[C@](C)(COC(=O)c3cccnc3)[C@H](OC(=O)c3cccnc3)CC[C@@]2(C)[C@@H]1/C=C/C1=CC(=C/c2ccc(Cl)cc2)/OC1=O | – | – | inactive | inactive | – | inactive | inactive | – | – | – | inhibition at 10 µM (SGC-7901 [2]): 22.3%; IC50 5637 [35]: 8.1 µM
13 | C[C@@]12COCO[C@@H]1CC[C@]1(C)[C@@H]2CC[C@@]2(CO2)[C@H]1C/C=C1/C(=O)OC[C@H]1O | – | – | inactive | inactive | – | – | inactive | inactive | 18.4 | 32.9 | –
14 | C=C1CC[C@@H]2[C@]3(C)COCO[C@@H]3CC[C@@]2(C)[C@@H]1C/C=C1/C(=O)OC[C@H]1O | – | – | inactive | inactive | – | – | inactive | inactive | 36.3 | 25.3 | –
